Experimental data from patent US6342219B1 (Board of Regents, The University of Texas System, priority 1999, dated 2002).

Legend:
VEGF = molecular target: T1, VEGF (Homo sapiens, UniProt P15692); assay: Competition ELISA (epitope groups); type: binding
T1 sequence (P15692 27-191 isoform P15692-4): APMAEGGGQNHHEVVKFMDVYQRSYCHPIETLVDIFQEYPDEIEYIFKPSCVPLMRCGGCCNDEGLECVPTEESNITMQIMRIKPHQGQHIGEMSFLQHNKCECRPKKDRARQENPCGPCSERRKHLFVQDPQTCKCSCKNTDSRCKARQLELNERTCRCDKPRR
Method: Competition ELISA studies were performed by first labeling the antibodies with peroxidase according to the manufacturer's instructions (EZ-Link Activated Peroxidase, Pierce). […] Approximately 0.5-2.0 μg/ml of peroxidase labeled test antibody was incubated on the plate in the presence of either buffer alone, an irrelevant IgG, or the other anti-VEGF competing antibodies in a 10-100 fold excess.
The assay was done in triplicate at least twice for each combination of labeled and competitor antibody. Two antibodies were considered to be in the same epitope group if they cross-blocked each other's binding by greater than 80%.

[1] = system: guinea pig VEGF in line 10 guinea pig tumor sections; assay: Immunohistochemistry, endothelial cell staining, guinea pig Line 10 tumor; type: binding; parameters: key: −, negative; +/−, very weak; 1+, weak; 2+, moderate; 3+, strong; 4+, very strong; settings: acetone fixed frozen sections
Method: Guinea pig line 10 hepatocellular carcinoma tumor cells (obtained from Dr. Ronald Neuman, NIH, Bethesda, Md.) were grown in strain 2 guinea pigs (NCI, Bethesda, Md.). The human tumors NCI-H358 non-small cell lung carcinoma (NSCLC), NCI-H460 NSCLC (both obtained from Dr. Adi Gazdar, UT Southwestern, Dallas, Tex.), HT29 colon adenocarcinoma (American Type Culture Collection), and L540CY Hodgkin's lymphoma (obtained from Professor V. Diehl, Cologne, Germany) were grown as xenografts in CB17 SCID mice (Charles River, Wilmington, Mass.).
Tumors were snap frozen in liquid nitrogen and stored at −70° C. Frozen samples of tumor specimens from patients were obtained from the National Cancer Institute Cooperative Human Tissue Network (Southern Division, Birmingham, Ala.). Immunohistochemistry was performed as described by Burrows et al. (1995).

[2] = system: VEGF-mediated growth of ABAE cells; assay: Endothelial cell growth assay (MTS); type: cell-based, bovine
Method: ABAE cells were grown in the presence of the various indicated antibodies and 0.5 nM VEGF. Growth after 4 days was determined calorimetrically by the enzymatic conversion of MTS (Owen's reagent) to a yellow formazan. […] Background was determined by growing cells without VEGF or antibody and was subtracted from the control and sample wells.
Adult bovine aortic endothelial (ABAE) cells were plated into 96-well tissue culture plates at 1500 cells/well and grown in the presence of 0.5 nM human VEGF with the addition of the various sample and control antibodies. Control wells received media with or without VEGF.
After 4 days of incubation, the cells were quantified by an MTS (3-(4,5-dimethylthiazol-2-yl)-5-(3-carboxylmethoxyphenyl)-2-(4-sulfophenyl)-2H-tetrazolium, inner salt) conversion assay, where MTS conversion to a formazan is proportional to cell number and can be followed by absorbance at 490 nm (Cell Titer 96 AQueous One Solution Cell Proliferation Assay, Promega, Madison, Wis.). The assay was performed according to the manufacturer's instructions.
Cell growth was estimated by subtracting the MTS conversion in cultures to which VEGF was not added. Results were expressed as a percentage of the MTS conversion in control cultures to which only VEGF was added (Buttke et al., 1993).

VEGFR2 (sFlk-1) = assay: ELISA of VEGF binding to VEGFR2-coated wells; parameters: species or system mouse
Method: (§1) FIG. 2. […] The plate was then incubated with rabbit anti-VEGF (A-20, Santa Cruz Biotechnology, Inc.) at 1 μg/ml and developed using a peroxidase conjugated goat anti-rabbit antibody. Assays were performed in triplicate. Mean percent binding in the absence of antibody is shown, together with the standard deviation.
(§2) The assay was also performed by coating wells of a microtiter plate with either control or test IgG.

VEGFR1 (Flt-1/Fc) = assay: ELISA of VEGF binding to VEGFR1-coated wells
Method: as §1, §2

VEGFR2 in PAE/KDR cells = assay: VEGF-induced phosphorylation of VEGFR2 (immunoprecipitation and Western blot); type: cell-based, porcine; settings: antibodies at 100 nM, 15 min
Method: PAE/KDR, PAE/FLT, and bEND.3 cells were grown to 80-90% confluency in 100 mm tissue dishes in media containing 5% serum. The cells were then serum starved for 24 hours in media containing 0.1% serum. After pretreatment with 100 […] in PBS for 30 min, the cells were incubated with 5 nM (200 ng/ml) VEGF165, 5 nM (100 ng/ml) bFGF (R&D Systems, Minneapolis, Minn.), or A673 tumor conditioned media in the presence or absence of control or test antibodies for additional 15 min.
The cells were then washed with ice-cold PBS containing 10 mM EDTA, 2 mM sodium fluoride, and 2 mM sodium orthovanadate and lysed in lysis buffer (50 mM Tris, 150 mM NaCl, 1% Nonidet P-40, 0.25% sodium deoxycholate, 0.1% CHAPS, 5 mM EDTA, 1.5 mM MgCl2, 2 mM sodium fluoride, 2 mM sodium orthovanadate, 10% glycerol and protease inhibitors (Complete Protease Inhibitor Cocktail tablets, Boehringer Mannheim)). The lysates were clarified by centrifugation and resulting supernatant used for immunoprecipitation.
The reactions using the chicken anti-FLT-1 antibody were subsequently incubated with a bridging goat anti-chicken antibody (Kirkegaard and Perry Laboratories, Inc.) for 1 h at 4° C. […]

A673 rhabdomyosarcoma = assay: In vivo tumor growth inhibition, newly implanted A673; parameters: species or system nu/nu mice
Method: FIG. 3A and FIG. 3B. […] FIG. 3A: 1×10^7 NCI-H358 NSCLC cells were injected subcutaneously into nu/nu mice on day 0. FIG. 3B: 5×10^6 A673 rhabdomyosarcoma cells were injected subcutaneously into nu/nu mice on day 0. Mice were injected i.p. with the indicated IgG on day 1 and 2 times/week thereafter. […] Tumors were measured 2-3 times per week. Mean and standard error is shown for the duration of the study in FIG. 3A, while data for the last day of the study (day 26) is shown in FIG. 3B.
Nu/nu mice were injected subcutaneously with either 1×10^7 NCI-H358 NSCLC cells or 5×10^6 A673 rhabdomyosarcoma cells on day 0. […] The tumors were then measured twice per wk for a period of approximately six wk for the NCI-H358 bearing mice and four wk for the A673 bearing mice. Tumor volume was calculated according to the formula: volume=L×W×H, where L=length, W=width, H=height.

2C3: anti-VEGF monoclonal antibody, IgG2a, k, produced by hybridoma ATCC PTA 1595; blocks VEGF binding to VEGFR2 but not VEGFR1 [Clone 2C3]
Cross-reactivity of 2C3 and A4.6.1 in competition studies (VEGF): not cross-reactive | Epitope Group (VEGF; determined through competitive ELISA): 4 | Endothelial Cell Staining, Guinea Pig Tumor (Line 10) [1]: − | Blocks VEGF-induced proliferation [2]: Yes | Blocks VEGF from binding to VEGFR2 (VEGFR2 (sFlk-1)): Yes | Effect on VEGF binding to VEGFR2 in ELISA (VEGFR2 (sFlk-1); 100-1000 fold excess): blocked | Reduction in VEGF binding to VEGFR2 (VEGFR2 (sFlk-1); 100 fold molar excess over VEGF): about 74% | VEGF bound to VEGFR2-coated wells, of the amount bound in the absence of antibody (VEGFR2 (sFlk-1); 1000-fold molar excess over VEGF (1 nM VEGF)): ~19% | Reduction in VEGF binding to VEGFR2 (VEGFR2 (sFlk-1); 1000 fold molar excess over VEGF): about 81% | Blocks VEGF from binding to VEGFR1 (VEGFR1 (Flt-1/Fc)): No | Blocking of VEGF-induced phosphorylation of VEGFR2 (VEGFR2 in PAE/KDR cells): block | Final tumor volume, A673 (A673 rhabdomyosarcoma; 100 μg i.p. 2 times per wk from day 1, controls approximately 1000 mm^3): approximately 150 mm^3 | Effect of lower doses on the growth of A673 tumors (A673 rhabdomyosarcoma; 10 or 1 μg twice per wk): did slow the growth
